Some test systems named below: COLO 205 colon; EKVX NSCLC; HT29 colon; MALME-3M melanoma; NCI-H460 lung; OVCAR-3 ovarian; SNB-19 CNS; SK-OV-3 ovarian; HL-60(TB) leukemia.
Assay in all cases: NCI anticancer screen, dose series, 48 h

“And” between values parts separate entries of the source, which are not always exact repeats. Equal values may be shown once.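 Step 1: Grow cells in 96-well plates. Step 2: Expose to compound for 48 hours at 5 concentrations. Step 3: Interpolate endpoints linearly; if unreached, use highest concentration. GI50 is the concentration that inhibits growth by half. TGI marks complete inhibition of growth.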

Turning to `CCOC(=O)CC1=Nc2ccccc2SC1`, the TGI in the test with COLO 205 colon, in the test with EKVX NSCLC, in the test with HT29 colon, in the test on MALME-3M melanoma, with NCI-H460 lung and with OVCAR-3 ovarian was more than 100 µM each time. Further, the TGI with SNB-19 CNS was more than 100 µM.

In the case of `CCCCCCCCCCCCCCCC(=O)NCC(COP(=O)([O-])OCC[N+](C)(C)C)OCC` (configuration not stated), the TGI was 5.1 µM in the test on COLO 205 colon; 36.5 µM in the test on EKVX NSCLC; 16.3 µM in the test with HT29 colon; 30.8 µM in the test with MALME-3M melanoma; 7.28 µM with NCI-H460 lung; 18.9 µM in the test with OVCAR-3 ovarian. Moreover, the TGI in the test with SK-OV-3 ovarian came to 42.6 µM; in the test on SNB-19 CNS it was 11 µM.

With `FC(F)(F)c1nc(-c2ccccc2Cl)[nH]c1C(F)(F)F`, the TGI with COLO 205 colon is 0.971 µM; in the test with EKVX NSCLC it was 2.25 µM; with HL-60(TB) leukemia it was 1.22 µM; in the test with HT29 colon, 4.22 µM; with MALME-3M melanoma, 2.75 µM; with NCI-H460 lung, 4.17 µM. Besides, the TGI with OVCAR-3 ovarian was 3.68 µM; in the test with SK-OV-3 ovarian it was 2.45 µM; with SNB-19 CNS, 8.27 µM.

Regarding `C1COCCN1.C1COCCN1.N.N.[Cl-].[Pt+2]`, the GI50 in the test with COLO 205 colon, in the test with EKVX NSCLC, in the test with MALME-3M melanoma, in the test on NCI-H460 lung, in the test with OVCAR-3 ovarian and in the test on SNB-19 CNS was more than 100 µM each time. The TGI with COLO 205 colon, in the test with EKVX NSCLC, in the test on MALME-3M melanoma, with NCI-H460 lung, in the test on OVCAR-3 ovarian and in the test with SNB-19 CNS was more than 100 µM each time.

In the case of `Cc1cc2c(cc1C)[n+](=O)c(C(=O)C/C(=N/NC(=O)c1ccccc1O)C(=O)Nc1ccccc1C(C)C)c(C)n2[O-]`, the TGI was more than 100 µM in the test with COLO 205 colon; more than 100 µM with EKVX NSCLC; 37.9 µM with HL-60(TB) leukemia; more than 100 µM in the test with HT29 colon; more than 100 µM in the test on MALME-3M melanoma; more than 100 µM with NCI-H460 lung. In addition, the TGI with OVCAR-3 ovarian, in the test on SK-OV-3 ovarian and with SNB-19 CNS was more than 100 µM throughout.

As for `N#CC1(c2nc3ccccc3o2)C(=O)C(=O)N(C2C3CC4CC(C3)CC2C4)C(=O)C1=O` (configuration not stated), the TGI in the test on COLO 205 colon, in the test with EKVX NSCLC, in the test on HL-60(TB) leukemia, in the test on HT29 colon, in the test on MALME-3M melanoma and in the test with NCI-H460 lung was more than 100 µM each time. Moreover, the TGI in the test on OVCAR-3 ovarian, with SK-OV-3 ovarian and in the test with SNB-19 CNS was more than 100 µM each time.

On to `CCOC(=O)C1(CC)CCCCC(=O)N1` (configuration not stated), for which the TGI with COLO 205 colon, in the test on EKVX NSCLC, in the test with HL-60(TB) leukemia, with HT29 colon, with MALME-3M melanoma and with NCI-H460 lung was more than 100 µM throughout. Besides, the TGI with OVCAR-3 ovarian and in the test on SK-OV-3 ovarian was more than 100 µM each time.

For the compound `CC(=O)OC1=C2CC3(C)OC(=O)CC(C)(C)C3=CC=C2C=C(C(C)C)C1=O` (configuration not stated), the TGI with COLO 205 colon amounted to 2.05 µM; with EKVX NSCLC, 3.57 µM; with HL-60(TB) leukemia, 0.888 µM; in the test on HT29 colon it was 2.73 µM; in the test on MALME-3M melanoma it was 1.17 µM; with NCI-H460 lung it was 3.31 µM. Moreover, the TGI was 2.41 µM with OVCAR-3 ovarian, 3.54 µM in the test with SK-OV-3 ovarian and 3.28 µM in the test on SNB-19 CNS.

For `COc1c(C2CC(=O)Nc3c2cnn3Cc2ccco2)cc2c(c1OC)OCO2` (configuration not stated), the GI50 was 0.332 µM with COLO 205 colon; 0.301 µM in the test on HL-60(TB) leukemia; 0.372 µM with HT29 colon; 0.441 µM with MALME-3M melanoma; 0.401 µM with NCI-H460 lung; 0.325 µM with OVCAR-3 ovarian. The GI50 with SK-OV-3 ovarian is 0.858 µM; in the test on SNB-19 CNS, more than 100 µM. In addition, the TGI was 2.86 µM in the test with COLO 205 colon; more than 100 µM with HT29 colon; more than 100 µM in the test on MALME-3M melanoma; more than 100 µM in the test on NCI-H460 lung; 1.4 µM with OVCAR-3 ovarian; more than 24.9 µM in the test with SK-OV-3 ovarian. The compound also had a TGI with SNB-19 CNS of more than 100 µM.

For the compound `O=c1[nH]c2ccccc2cc1C(Cl)=C(Cl)Cl`, the TGI in the test on COLO 205 colon, in the test on EKVX NSCLC, in the test on HL-60(TB) leukemia, with HT29 colon, in the test on MALME-3M melanoma and with NCI-H460 lung was more than 100 µM in each case. For the same compound, the TGI in the test on OVCAR-3 ovarian, with SK-OV-3 ovarian and with SNB-19 CNS was more than 100 µM throughout.

Regarding `Cn1cc(NC(=O)c2cc(NC(=O)CCCCCCCCCCC(=O)Nc3cc(C(=O)Nc4cc(C(=O)NCCC(=N)N)n(C)c4)n(C)c3)cn2C)cc1C(=O)NCCC(=N)N`, the TGI in the test with COLO 205 colon was more than 100 µM; in the test with EKVX NSCLC it was 90.2 µM; in the test with HT29 colon, more than 100 µM; in the test with NCI-H460 lung it was more than 100 µM; in the test on OVCAR-3 ovarian it was more than 100 µM; in the test on SK-OV-3 ovarian, more than 100 µM. The compound also had a TGI with SNB-19 CNS of more than 100 µM.

As to `Cc1ccc(-c2c(N)nc(NC#N)nc2CCC(=O)Nc2ccccc2[N+](=O)[O-])cc1`, the TGI in the test on COLO 205 colon, in the test on EKVX NSCLC, in the test on HL-60(TB) leukemia, in the test with HT29 colon, with MALME-3M melanoma and in the test with NCI-H460 lung was more than 100 µM throughout. For the same compound, the TGI with OVCAR-3 ovarian, in the test with SK-OV-3 ovarian and with SNB-19 CNS was more than 100 µM throughout.

Turning to `COc1ccc(C(=O)Nc2ncc(Cc3ccc(Cl)cc3)s2)cc1`, the GI50 with COLO 205 colon was 0.0533 µM; in the test with EKVX NSCLC, 0.26 µM; in the test on HL-60(TB) leukemia, 0.0347 µM; with HT29 colon, 0.0396 µM; with MALME-3M melanoma it was 0.087 µM; with NCI-H460 lung, 0.0406 µM. Also, the results for the GI50 in the test on OVCAR-3 ovarian, with SK-OV-3 ovarian and with SNB-19 CNS were 0.0327 µM, 0.15 µM and 0.0897 µM, respectively. Also, the TGI in the test with COLO 205 colon was 2.29 µM; with EKVX NSCLC it was more than 100 µM; in the test with HT29 colon, more than 100 µM; in the test on MALME-3M melanoma, more than 100 µM; with NCI-H460 lung, more than 100 µM; in the test with OVCAR-3 ovarian it was 0.159 µM. Moreover, the TGI with SK-OV-3 ovarian and in the test on SNB-19 CNS was more than 100 µM in each case.

In the case of `COc1cc2c(c3c1C=CCO3)C(=O)c1ccccc1C2=O`, the TGI with COLO 205 colon is 39.8 µM; with EKVX NSCLC it was more than 100 µM; with HL-60(TB) leukemia it was 57.7 µM; in the test with HT29 colon, more than 100 µM; in the test on MALME-3M melanoma, more than 100 µM; in the test on NCI-H460 lung, more than 100 µM. Moreover, the TGI with OVCAR-3 ovarian, with SK-OV-3 ovarian and in the test on SNB-19 CNS was more than 100 µM throughout.

Regarding `CCCCCCCCCCCCC(=O)OC(c1cnco1)c1nc(C(O)CC(O)C(O)C(C)O)co1` (configuration not stated), the GI50 in the test with COLO 205 colon is 0.587 µM; in the test on EKVX NSCLC, 6.56 µM; in the test with HL-60(TB) leukemia, 0.544 µM; in the test on HT29 colon it was 1.1 µM; in the test with MALME-3M melanoma, 3.61 µM; in the test on NCI-H460 lung it was 0.443 µM. Besides, the GI50 with OVCAR-3 ovarian was 4.61 µM; with SK-OV-3 ovarian it was 4.64 µM. Moreover, the TGI in the test with COLO 205 colon is 1.98 µM and 3.52 µM; in the test on EKVX NSCLC it was more than 100 µM; in the test with HL-60(TB) leukemia, 25.4 µM; in the test with HT29 colon it was more than 100 µM; with MALME-3M melanoma it was more than 100 µM; in the test with NCI-H460 lung it was more than 37 µM. Also, the TGI in the test with OVCAR-3 ovarian, in the test on SK-OV-3 ovarian and with SNB-19 CNS was more than 100 µM each time.

For `CCOC(=O)C1=C(C)Nc2ccccc2S1`, the TGI in the test on COLO 205 colon, with EKVX NSCLC, with HT29 colon, in the test with MALME-3M melanoma, in the test with NCI-H460 lung and in the test on OVCAR-3 ovarian was more than 100 µM each time. Also, the TGI in the test with SK-OV-3 ovarian and in the test on SNB-19 CNS was more than 100 µM each time.

Regarding `O=[N+]([O-])[C@@H]1C2C=CC(C2)[C@H]1Cl` (some centres not stated), the TGI in the test with COLO 205 colon, in the test with EKVX NSCLC, with HL-60(TB) leukemia, in the test with HT29 colon, with MALME-3M melanoma and in the test on NCI-H460 lung was more than 100 µM throughout. The TGI in the test on OVCAR-3 ovarian, in the test with SK-OV-3 ovarian and in the test on SNB-19 CNS was more than 100 µM each time.

Turning to `CSC1=NC=CCN1C`, the TGI in the test on COLO 205 colon, with EKVX NSCLC, in the test with HL-60(TB) leukemia, in the test with HT29 colon, in the test on MALME-3M melanoma and in the test on NCI-H460 lung was more than 100 µM in each case. Moreover, the TGI in the test on OVCAR-3 ovarian, in the test on SK-OV-3 ovarian and in the test on SNB-19 CNS was more than 100 µM throughout.

Take `C=CCSC[C@H](NC(=O)COc1ccccc1)C(=O)NC(C(=O)OCc1ccc([N+](=O)[O-])cc1)=C(C)C`: the TGI with COLO 205 colon was 39 µM; in the test on EKVX NSCLC it was more than 100 µM; in the test on HL-60(TB) leukemia, more than 100 µM; in the test on HT29 colon, more than 100 µM; in the test on MALME-3M melanoma, more than 100 µM; in the test on NCI-H460 lung, more than 100 µM. Also, the TGI in the test with OVCAR-3 ovarian and in the test on SK-OV-3 ovarian was more than 100 µM in each case.

For the compound `CCOc1ccc(NC(=O)CC2Sc3ccccc3NC2=O)cc1` (configuration not stated), the TGI in the test on COLO 205 colon, in the test on EKVX NSCLC, in the test with HL-60(TB) leukemia, in the test with HT29 colon, with MALME-3M melanoma and in the test with NCI-H460 lung was more than 100 µM each time. Moreover, the TGI in the test on OVCAR-3 ovarian, in the test on SK-OV-3 ovarian and in the test with SNB-19 CNS was more than 100 µM each time.

(Values after PubChem BioAssay (NCI).)
